Results published in patent publication US4544740A, “Process for the preparation of 5-(2-bromovinyl)-uridine” (priority 1981, dated 1985).
Values after ≈ are worked out from the molar mass of the structure shown. Values joined by “and” are separate entries in the source; they are usually repeats but may differ in a detail not shown here. Equal entries are not always repeated. “Also recorded” adds a separate entry of the source. Where two headings read alike, the source gives them in different places.

Key:
[1] = Cytotoxicity of nucleoside analogues in HeLa cell cultures; type: cell-based; details: human, hela cells
Text: (§1) Cytotoxicity of nucleoside analogues at concentra-
(§2) tions of CTo and CT50 in various cell cultures in […]

tissue culture = assay: Comparative toxicity in tissue culture
Text: (§3) A method was developed for the testing of the antiviral activity of various drugs in solution which is suitable for the exact, sensitive and objective in vitro assay of drug activity exerted on the cells and tissues of both warm-blooded animals and men [Toxicology 16, 59 (1980)]. The method is also suitable for calculating from the test data the highest concentration of the test drug in the tissue culture medium which is not impairing the tissue yet (CTo).

[2] = system: type 1 Herpes simplex virus; assay: Inhibitory effect of nucleoside analogues on multiplication of type 1 Herpes simplex in HeLa cell culture (virus titer, TCID50); type: cell-based, Herpes simplex virus type 1; details: for log TCID50, average: average of individual experiments; for Δ log TCID50, average / Δ log TCID50: difference from control; for antiviral (anti-herpes) effect in words: in vitro, tissue culture
Text: as §3
The difference in the logarithm of virus titers may be considered the objective indicator of the rate of inhibition of virus multiplication.

[3] = Cytotoxicity of nucleoside analogues in BHK-21 cell cultures; type: cell-based; details: hamster, bhk-21 cells
Text: as §1, §2

Herpes simplex virus = details: literature; cited from earlier work
Herpes simplex type 1 = assay: Effect of nucleoside analogues on virus multiplication in cell cultures at concentrations of CTo: Herpes simplex type 1 in HeLa cell culture; type: cell-based, Herpes simplex virus type 1
Experimental: The testing of antiviral activity was carried out according to the following considerations:
According to the literature the major part of antiviral nucleoside analogues is presumed to exert its "antiviral potency" by interfering with the functioning of the host cell which as a result fails to promote intracellular virus multiplication (it is a well known fact that virus multiplication requires a well functioning host cell).
Effect of nucleoside analogues on virus multiplica-
tion in cell cultures at concentrations of CTo
^1 = type 1 in HeLa cell culture

[4] = Cytotoxicity of nucleoside analogues in RK-13 cell cultures; type: cell-based; details: rabbit, rk-13 cells
Text: as §1, §2

[5] = Cytotoxicity of nucleoside analogues in Vero cell cultures; type: cell-based; details: monkey, vero cells
Text: as §1, §2

Water solubility = type: physicochemical; details: i.v. trial limited
[6] = read-out: CT50 (the source's name) (converted)
[7] = individual experiments, HeLa, concentration of CTo

Experimental for mice: Solvent: 20 percent aqueous dimethylsulfoxide
Acute toxicity after a single dose
/measured after 24 hours/
Dose Number of dead/treated animals

O=c1[nH]c(=O)n([C@H]2C[C@H](O)[C@@H](CO)O2)cc1/C=C/Br [B, (E)-5-(2-bromovinyl)-2'-deoxy-uridine, reference compound]
MNTC ([1]; HeLa, highest concentration not impairing the tissue, read-out: CTo (converted)): 39.8 µg/mL
CC50 [1, 6]: 251 µg/mL (≈ 754 µM)
effect on cells and tissues used for culturing (tissue culture; at concentrations as low as CTo): without impairing the cells and tissues used for culturing
log TCID50, average ([2]; HeLa, concentration of CTo): 2.26
Δ log TCID50, average ([2]; HeLa, concentration of CTo): 3.53
antiviral (anti-herpes) effect in words [2]: marked antiviral effect in vitro
Δ log TCID50 [2, 7]: 3.33 and 3.84 and 3.78 and 3.17
Number of dead/treated animals (mice; i.p., 500 mg/kg single dose, 24 hours): 0/5
Number of dead/treated animals (mice; i.p., 750 mg/kg single dose, 24 hours): 2/5
Number of dead/treated animals (mice; i.p., 1000 mg/kg single dose (aqueous suspension), 24 hours): 5/5
Number of dead/treated animals (mice; i.v., 300 mg/kg single dose, 24 hours): 1/5
Number of dead/treated animals (mice; per os, 1000 mg/kg single dose (aqueous suspension), 24 hours): 0/5
Number of dead/treated animals (mice; per os, 1500 mg/kg single dose (aqueous suspension), 24 hours): 0/5
MNTC ([3]; BHK-21, highest concentration not impairing the tissue, read-out: CTo (converted)): 316 µg/mL
CC50 [3, 6]: 794 µg/mL (≈ 2380 µM)
antiviral / anti-herpes activity in words (Herpes simplex virus): marked anti-herpes potency
Effect on virus multiplication, Herpes simpl. (Herpes simplex type 1): ++++
MNTC ([4]; RK-13, highest concentration not impairing the tissue, read-out: CTo (converted)): 20 µg/mL
CC50 [4, 6]: 794 µg/mL (≈ 2380 µM)
MNTC ([5]; Vero, highest concentration not impairing the tissue, read-out: CTo (converted)): 39.8 µg/mL
CC50 [5, 6]: 316 µg/mL (≈ 949 µM)

O=c1[nH]c(=O)n([C@@H]2O[C@H](CO)[C@@H](O)[C@H]2O)cc1/C=C/Br [A, (E)-5-(2-Bromovinyl)-uridine]
CC50 [1]: 398 µg/mL (≈ 1140 µM)
MNTC [1]: 100 µg/mL
effect on cells and tissues used for culturing (tissue culture): without impairing the cells and tissues used for culturing
water solubility (Water solubility): poor water solubility
log TCID50, average ([2]; HeLa, concentration of CTo): 2.66
Δ log TCID50, average ([2]; HeLa, concentration of CTo): 3.16
antiviral (anti-herpes) effect in words ([2]; listed as (E)-5-(2-Bromovinyl)-uridine): very active in inhibiting the multiplication of type 1 Herpes simplex virus
antiviral (anti-herpes) effect in words ([2]; listed as (E)-5-(2-bromovinyl)-uridine): marked antiviral effect in vitro; also recorded: significantly reduced
antiviral (anti-herpes) effect in words ([2]; listed as ribonucleoside of (E)-5-(2-bromovinyl)-uracil base): similarly high anti-herpes potency
log TCID50 [2, 7]: 2.77 and 2.5 and 3.0 and 2.33
Δ log TCID50 [2, 7]: 3.23 and 3.33 and 3.25 and 3.0 and 3.16 and 3.17
Number of dead/treated animals (mice; mouse, in vivo, 1000 mg/kg): 0/5
Number of dead/treated animals (mice; mouse, in vivo, 1500 mg/kg): 0/5
Number of dead/treated animals (mice; mouse, in vivo, ip, 500 mg/kg): 0/5
Number of dead/treated animals (mice; mouse, in vivo, ip, 750 mg/kg): 0/5
Number of dead/treated animals (mice; mouse, in vivo, ip, 1000 mg/kg): 4/5
Number of dead/treated animals (mice; mouse, in vivo, iv, 300 mg/kg): 0/5
CC50 [3]: 501 µg/mL (≈ 1440 µM)
MNTC [3]: 126 µg/mL
Effect on virus multiplication, Herpes simpl. (Herpes simplex type 1): ++++
CC50 [4]: 501 µg/mL (≈ 1440 µM)
MNTC [4]: 39.8 µg/mL
CC50 [5]: 398 µg/mL (≈ 1140 µM)
MNTC [5]: 100 µg/mL

O=c1[nH]c(=O)n([C@H]2C[C@H](O)[C@@H](CO)O2)cc1I [C, 5iodo-2deoxy-uridine]
CC50 [1]: 20 µg/mL (≈ 56.3 µM)
MNTC [1]: 0.0398 µg/mL
CC50 [3]: 6.31 µg/mL (≈ 17.8 µM)
MNTC [3]: 0.1 µg/mL
CC50 [4]: 79.4 µg/mL (≈ 224 µM)
MNTC [4]: 5.01 µg/mL
CC50 [5]: 39.8 µg/mL (≈ 112 µM)
MNTC [5]: 31.6 µg/mL

Nc1nc(=O)n([C@H]2C[C@H](O)[C@@H](CO)O2)cc1I [D, 5iodo-2deoxy-cytidine]
CC50 [1]: 7.94 µg/mL (≈ 22.5 µM)
MNTC [1]: 0.01 µg/mL
